From paper PMC3100252, “A theoretical entropy score as a single value to express inhibitor selectivity” (BMC Bioinformatics, 2011)
Read-outs that look alike come from different tables or passages of the source.

Key:
[1] = tested on: 290 kinases (excluding mutants); assay type: binding; settings: for number of kinases inhibited below 3 μM: Ambit profile; for number of kinases inhibited below 3 μM / entropies (selectivity entropy, Ssel): 290 kinases; for Ka-Gini: Gini score calculated directly on Kas of the Ambit dataset (Kds of ref 5); for entropies (selectivity entropy, Ssel): calculated from Kds of the Ambit dataset (ref 5)
Description: Having defined the entropy, we next investigated its performance relative to the most widely-used methods, on a public profiling dataset of 38 inhibitors on 290 non-mutant kinases (Table 1 and Additional file 1). […] To this we added a Ka-Gini value and the selectivity entropy. The Ka-Gini is a Gini score directly calculated on Kas, without reverting to %-inhibition values (see below). […] In addition, to get an overview of the profiling raw data, we appended an activity-based heat map (Uitdehaag_S1).
(§1) It is worth to note that the partition coefficient is the same as ϕl in our entropy equation (eq. 2).
The Gini score was calculated from data on %-inhibition. […] In addition, to work more directly with Kds, we also introduce a Ka-Gini score, in which association constants are used for rank-ordering the kinase profile. […] All calculations were done in Microsoft Excel. […]

222 human kinases = experiment: Millipore kinase profiling (radioactive filter binding activity assay at [ATP] = KM,ATP) and selectivity metrics calculated from it; assay type: biochemical; set-up: selectivity score: scale not given here; settings: for Ka-Gini score / Pmax / S10x / selectivity score: calculated from Millipore activity data; for selectivity entropy: calculated from Millipore activity data (pEC50), [ATP] = KM,ATP
Description: As a next step we selected 16 compounds from the public profile (Ambit), and measured activity data on these using a different profiling service (Millipore, data available as Additional file 2). […] Also for these new data, we calculated the selectivity metrics (Uitdehaag_S2). In the ideal case, the selectivity values are similar irrespective of profiling technology (in the same way that a Kd value is ideally independent of laboratory and assay format). The data of both methods are plotted in Figure 2.
as §1
The Gini score was calculated from data on %-inhibition. […] In addition, to work more directly with Kds, we also introduce a Ka-Gini score, in which association constants are used for rank-ordering the kinase profile. […] All calculations were done in Microsoft Excel.
For comparing profiles across methods (Figure 2), we selected 16 kinase inhibitors of the Ambit profile (Table 2) and submitted these to the kinase profiling service from Millipore (http://www.millipore.com/drugdiscovery/svp3/kpservices, data available as Additional file 2). Both profiling methods are described earlier and differ (among other variations) in the following way: Ambit uses a competitive binding setup in absence of ATP on kinases from T7 or HEK293 expression systems. Millipore uses a radioactive filter binding activity assay, with kinases purified from Escherichia coli or baculovirus expression systems.

[2] = tested on: 290 kinases (excluding mutants); settings: cited from earlier work; for Gini: 38 inhibitors on 290 non-mutant kinases; for S10x: fraction of kinases hit at 10 times the Kd of the target
PDGFRβ = settings: Ambit profiling raw data; cited from earlier work
[3] = rank among 38 inhibitors, Ambit dataset
[4] = Ambit dataset, values taken from earlier work
[5] = Ambit dataset, fraction of kinases hit below 3 μM, values taken from earlier work

| Compound | number of kinases inhibited below 3 μM [1] | Ka-Gini [1] | entropies (selectivity entropy, Ssel) [1] | selectivity rank by Ka-Gini [1, 3] | selectivity rank by Pmax [1, 3] | selectivity rank by selectivity entropy [1, 3] | Ka-Gini score (222 human kinases) | Pmax (222 human kinases) | S10x (222 human kinases) | selectivity score (222 human kinases) | selectivity entropy (222 human kinases) | Gini [2, 4] | S10x [2, 4] | Pmax (partition index) [2, 4] | potencies on the 4 kinases hit with roughly equal potencies ([2]; Ambit profile, 4 kinases not named) | S3uM (selectivity score S(3 μM)) [2] | S3uM (selectivity score S(3 μM)) [2, 5] | Kd (PDGFRβ) |
| --- | --- | --- | --- | --- | --- | --- | --- | --- | --- | --- | --- | --- | --- | --- | --- | --- | --- | --- |
| COc1cc2c(N3CCN(C(=O)Nc4ccc(OC(C)C)cc4)CC3)ncnc2cc1OCCCN1CCCCC1 [MLN-518, tandutinib] | 10 kinases | 0.98 | 1.58 | 14 | 26 | 15 | 0.993 | 0.621 | 0.005 | 0.032 | 1.300 | 0.74 | 0.01 | 0.26 | 2 to 10 nM | 0.06 | – | – |
| O=C(O)c1ccc(Nc2ncc3c(n2)-c2ccc(Cl)cc2C(c2c(F)cccc2F)=NC3)cc1 [MLN-8054] | – | 0.97 | 1.95 | – | – | – | 0.980 | 0.617 | 0.002 | 0.154 | 1.903 | 0.75 | 0.01 | 0.36 | – | – | 0.13 | – |
| Oc1cccc(-c2nc(N3CCOCC3)c3oc4ncccc4c3n2)c1 [PI-103] | – | 0.99 | 0.05 | – | – | – | 0.995 | 0.561 | 0.005 | 0.014 | 0.876 | 0.41 | 0.00 | 0.97 | – | – | – | – |
| Cc1[nH]c(/C=C2\C(=O)Nc3ccc(F)cc32)c(C)c1C(=O)NC[C@H](O)CN1CCOCC1 [SU-14813] | – | 0.97 | 2.04 | – | – | – | – | – | – | – | – | 0.70 | 0.02 | 0.18 | – | – | 0.51 | 0.29 nM |
| CNC(=O)c1cc(Oc2ccc(NC(=O)Nc3ccc(Cl)c(C(F)(F)F)c3)cc2)ccn1 [Sorafenib, sorafenib] | – | 0.97 | – | – | – | – | 0.975 | 0.149 | 0.029 | – | – | 0.82 | 0.10 | – | – | – | – | – |
| CCN(CC)CCNC(=O)c1c(C)[nH]c(/C=C2\C(=O)Nc3ccc(F)cc32)c1C [Sunitinib, sunitinib] | 181 kinases | – | – | – | – | – | – | 0.107 | 0.038 | – | – | 0.67 | 0.02 | – | – | – | – | – |
| Cc1cc(Nc2cc(N3CCN(C)CC3)nc(Sc3ccc(NC(=O)C4CC4)cc3)n2)[nH]n1 [VX-680, tozasertib] | – | 0.93 | 3.09 | – | – | – | 0.972 | 0.278 | 0.020 | 0.199 | 2.625 | 0.76 | 0.03 | 0.15 | – | – | 0.38 | – |
| O=c1ncn2nc(Sc3ccc(F)cc3F)ccc2c1-c1c(Cl)cccc1Cl [VX-745] | – | 0.99 | 0.28 | – | – | – | 0.997 | 0.820 | 0.005 | – | 0.590 | 0.51 | 0.00 | 0.92 | – | – | 0.03 | – |
| COc1cc2c(Nc3ccc(Br)cc3F)ncnc2cc1OCC1CCN(C)CC1 [ZD-6474, vandetanib] | 79 kinases | 0.94 | – | – | – | – | 0.963 | 0.117 | 0.041 | – | – | 0.79 | 0.26 | – | – | – | – | – |
